Type in all cases: cell-based
One assay deals with human blood platelets. As to the kind of experiment: In vitro inhibition of ADP-induced human platelet aggregation (platelet-rich plasma, aggregometer). Here is the method:
Procedure for Determining In Vitro Platelet Aggregation-Inhibitory Activity. Adenosine diphosphate (ADP) was used to induce platelet aggregation and was utilized as the sodium salt. A 10 mM stock solution was prepared fresh before each use in modified Tyrode's buffer and working dilutions were prepared with modified Tyrode's buffer immediately prior to use. The buffer contained NaCl (137.00 mM), KCl (2.70 mM), NaHCO3 (11.90 mM), NaH2 PO4 H2 O (0.36 mM) and glucose (5.60 mM) in redistilled water. Adjustment to pH 7.4 was effected by addition of 1N HCl.
The blood was transferred into plastic centrifuge tubes containing 3.2% sodium citrate (blood/citrate ratio 8:1) and centrifuged at 120Xg for 15 minutes at 23° C., yielding platelet-rich plasma (PRP); platelet-poor-plasma (PPP) was obtained by centrifugation of citrated whole blood at 1,100Xg for 15 min at 23° C. The platelet count of PRP was determined and adjusted to a final count of 300,000 platelet per mm^3 by dilution with autologous PPP. […] The plasma so obtained was transferred using a 1.0 ml Centaur pipette into a 50 ml polyethylene centrifuge tube. In order to maintain plasma pH in the appropriate range, the air in the tubes are displaced gently (2 minutes) with a 5% (CO2 -95% air (v/v) mixture and the tube capped. The plasma was maintained at 37° C. in a water bath until used in the aggregation experiments.
Assays of platelet aggregation were performed at least in duplicate, using plasma acquired from different donors, employing a method developed by Quintana, et al. (Quintana, et al., Relationships Between the Chemical Constitution of Carbamoylpiperidines and Related Compounds, and Their Inhibition of ADP-Induced Human Blood Platelet Aggregation, Thromb. Res. Vol. 22, Pages 665-680, 1981); Quintana, et al., Effects of Ethanol and of Other Factors on ADP-Induced Aggregation of Human Blood Platelets in Vitro, Thromb. Res., Vol. 20, Pages 405-415, 1980) (cf. Born, Nature, Vol. 194, Pages 927-929, 1962) and Mustard, et al., J. Lab. Clin. Med., Vol. 64, Pages 548-559, 1964).
Initially, in each experiment, 0.45-ml aliquots of PRP were placed in siliconized cuvettes and stirred (1,100 rpm) in the aggregometer at 37° C. to ascertain the absence of spontaneous aggregation. Appropriate ADP solutions (50 μl) were subsequently injected using a Hamilton microliter syringe to determine the minimal concentration eliciting maximal biphasic aggregation. […] In each case, the concentration of ADP so determined was used in eliciting aggregation throughout each specific set of aggregometric evaluations.
0.5 μl of a solution of the evaluant compound in redistilled 95% ethanol was injected into a stirred ([…]) 0.4-ml aliquot of plasma in a siliconized cuvette in the aggregometer-well (37° C). After 15 seconds, the cuvette was transferred to an incubator (also at 37° C.) and the contents held at this temperature, without stirring, until 2 minutes postinjection. The cuvette was then returned to the aggregometer-well, a base-line being recorded for 2 minutes to detect any spontaneous aggregation. At exactly 4 minutes after injection of the evaluant solution, 50 μl of the appropriate ADP solution was injected and aggregation recorded for 5.5 minutes. Evaluants were studied at least 4 different concentrations. Control experiments (ethanol in a final concentration of 0.095% v/v) were performed in conditions parallel with those involving the respective evaluants, and were initiated either 1 minute prior to or 1 minute after the start of experiments employing the test compounds. This permitted injections to be made precisely at the specified times.

The subject of the next assay is human platelets. As to the kind of experiment: Inhibition of collagen-induced aggregation, washed aequorin-loaded platelet suspension. The following applies: Homo sapiens, Platelet; collagen-induced aggregation (n = 4); HEPES-buffered saline, 1.0 mM CaCl2; read-out: Ia50 ± S.E. Collagen-induced. On the procedure:
(§1) Procedure for Cytosolic Ionized Calcium Determination. The basic procedure of Yamaguchi, et al. (Thromb. Res., Vol. 44, Pages 165-174, 1986) was followed. Blood was collected from six blood donors, aged 24-38 years, who had fasted overnight and affirmed abstinence from alcohol, caffeine and medications of any kind for a period of at least one week prior to donation. […] Platelets were collected (800 g, 15 min), resuspended in and washed (800 g, 15 min) with HEPES-buffered saline (140 mM NaCl, 2.7 mM KCl, 0.1% bovine albumin, 0.5% glucose, 3.8 mM HEPES, pH 7.6) with EGTA (5 mM) and PGE1 (1 μM). The platelet pellet was resuspended in 90 μl of the same buffer and added to 20μl of 3 mg/ml aequorin solution in a 1.5 ml Eppendorf centrifuge tube. Six 1 μl aliquots of DMSO were added at 90 second intervals with brief, gentle mixing on a Vortex mixer and the platelet suspension was incubated 2 minutes after the last addition. One ml of HEPES-buffered saline was added, gently mixed, and again incubated for 2 minutes. The platelets were pelleted (1000 g, 30 sec), resuspended in HEPES-buffered saline to which was added either 1 mM Mg Cl2, (calcium-free buffer) or 1 mM Mg Cl2 and 1 mM Ca Cl2 (calcium buffer), depending on the experiment. The platelet count was adjusted to 3-4×10^5 platelets/μl.
(§2) The Platelet Ionized Calcium Aggregometer (Chrono-Log Corp., Ltd., Havertown, Pa.) was used to obtain simultaneous aggregation and luminescence data under the following experimental conditions: (1) platelet suspension, 1 ml, was equilibrated at 37° C. with stirring at 1100 rpm; (2) 100 μl (1.2 μg) of fibrinogen was added; (3) the vehicle (95% ethanol) or the test compound in vehicle was added; (4) when needed, 10 μl of the desired concentration of EGTA was added 30 seconds prior to addition of the agonist; then (5) the agonist (Collagen, 5 μg or 20 μg) was added and the time noted. At one minute after addition of the agonist in Channel 1, a platelet sample containing fibrinogen in Channel 2 was lysed with 10 μl of a 1:1 solution of Triton X-100 (final concentration 0.005%) 10 mM CaCl2 (final concentration 0.5 mM). Treated and control […] data were corrected for time dependent decay of fluorescence using data from the untreated lysed controls.
(§3) Normally 4 compound-treated samples (at 4 different concentrations) interspersed with 3 control samples were evaluated at 4.5 minute intervals starting 18-23 minutes after the DMSO treatment. The Ia50 values were calculated as described earlier. The compound concentrations effecting 50% inhibition (Ica50) of collagen-induced cytosolic ionized calcium values was determined by linear regression analysis.
Compounds I-rac, (+)-I,(IC) and (-)-I(IA) were evaluated. The Ia50 (collagen-induced aggregation) and Ica50 (compound concentration required to inhibit by 50% the collagen-induced rise in cytosolic ionized calcium)values determined with platelet suspensions in HEPES-buffered saline containing 1.0 mM CaCl2 were as follows: […]

Assay [1] relates to cytosolic ionized calcium in human platelets. Nature of the assay: Inhibition of collagen-induced rise in cytosolic ionized calcium (aequorin luminescence). The note with it: collagen-induced, 1mM [Ca2+]o (n = 4); listed as IA (-)-I; read-out: Ica50 ± S.E. Collagen-induced (50% inhibition of collagen-induced rise in cytosolic ionized calcium). On the procedure:
as §1, §2, §3
Compounds I-rac, (+)-I,(IC) and (-)-I(IA) were evaluated. The Ia50 (collagen-induced aggregation) and Ica50 (compound concentration required to inhibit by 50% the collagen-induced rise in cytosolic ionized calcium)values determined with platelet suspensions in HEPES-buffered saline containing 1.0 mM CaCl2 were as follows:
Collagen-stimulation of platelets suspended in media containing 1.0 mM of Ca^2+ (FIG. 13) or 1.0 mM (FIG. 14A) or 2.0 mM (FIG. 14B) EGTA (a calcium chelator) gave […] cytosolic ionized calcium peak (aequorin-indicated luminescence). Contrarily, two phases of Ca^2+ mobilization were observed when aequorin-loaded human platelets suspended in a medium containing 0.1 mM EGTA were stimulated with collagen (FIG. 14, designation D). The first corresponded to platelet shape change and the second peak to aggregation. […] The platelet suspension (1.0 ml) was pre-incubated with 1.0 μl of (A) 95% ethanol, (B) a solution of Compound I (14.59 μM) in 95% ethanol, or (C) a solution of Compound I (23.87 μM) in 95% ethanol. Collagen (20 μg) was added at time indicated by the arrows. Luminescence was again recorded at a gain of 0.5. […] Accordingly, the stereo-selective inhibitory properties of the compounds of the present invention appear to be mediated through the inhibition of [Ca^2+ ].

Where [2] appears, read: Homo sapiens, Platelet, racemic compounds, ADP-induced, read-out: IC50 (compound concentration which inhibits ADP-induced platelet aggregation by 50%) ± S.E.
[3] abbreviates: Homo sapiens, Platelet, read-out: Ia50 (compound concentrations affecting 50% inhibition of aggregation) ± S.E., Table II, ADP-induced, n = 5 for (0)I and 6 for all others.
Setting [4] is: Homo sapiens, Platelet, read-out: IC50 (compound concentration which inhibits ADP-induced platelet aggregation by 50%) ± S.E., racemic compounds, ADP-induced.
Setting [5] is: Homo sapiens, Platelet, read-out: Ia50 ± S.E. ADP-induced, table 4, ADP-induced, 5 to 7 individual determinations.

Each structure is given as a SMILES string. Where a name gives a salt, the structure may show the parent alone. Read-outs that look alike come from different tables or passages of the source.

On to `CCN(Cc1ccccc1)C(=O)C1CCCN(Cc2ccc(CN3CCCC(C(=O)N(CC)Cc4ccccc4)C3)cc2)C1` (racemic) [Compound 6, α,α'-Bis[3-(N-benzyl-N-ethylcarbamoyl)piperidino]-p-xylene dihydrobromide], for which the IC50 with human blood platelets (setting [2]) turned out to be 37.7 ± 4.6 µM. As for `CN(C)CCCN1c2ccccc2Sc2ccc(Cl)cc21` [Chlorpromazine, reference compound], the IC50 with human blood platelets (setting [3]) was found to be 156 ± 25.5 µM. `O=C(C1CCCN(Cc2ccc(CN3CCCC(C(=O)N4CCCCC4)C3)cc2)C1)N1CCCCC1` (racemic) [Compound 10, α,α'-Bis[3-(piperidinocarbonyl)piperidino] p-xylene dihydrobromide]: in the assay on human blood platelets (Homo sapiens, Platelet, table 4, ADP-induced, 5 to 7 individual determinations, read-out: Ia50 ± S.E. ADP-induced), the IC50 came out at 28.9 ± 8.96 µM.

On to `CCN(CC)CC1CCCN(Cc2ccc(CN3CCCC(CN(CC)CC)C3)cc2)C1` (racemic) [Compound 4, α,α'-Bis[3-(N,N-diethylaminomethyl)-piperidino]-p-xylene tetrahydrochloride], for which the IC50 with human blood platelets (setting [2]) was 156 ± 460 µM; in the assay with human blood platelets (Homo sapiens, Platelet, racemic compounds, C = IC50 × 10^-3, read-out: Log1/C (converted)), 1570 µM. Take `O=C(C1CCCN(Cc2ccc(CN3CCCC(C(=O)N(Cc4ccccc4)Cc4ccccc4)C3)cc2)C1)N(Cc1ccccc1)Cc1ccccc1` (racemic) [Compound 8, α,α'-Bis[3-(N,N-dibenzylcarbamoyl)piperidino] p-xYlene dihydrobromide]: the IC50 in the assay on human blood platelets (setting [2]) came to 303 ± 60.8 µM. Consider `CCCCN(C)C(=O)C1CCCN(Cc2ccc(CN3CCCC(C(=O)N(C)CCCC)C3)cc2)C1` (stereo not drawn) [Compound 9, α,α'-Bis[3-(N-methyle-N-butylcarbamoyl)piperidino] p-xylene dihydrobromide], for which the IC50 with human blood platelets (setting [4]) is 22.1 ± 5.5 µM. In the case of `O=C(NCc1ccccc1)C1CCCN(Cc2ccc(CN3CCCC(C(=O)NCc4ccccc4)C3)cc2)C1` (racemic) [Compound 5, α,α'-Bis[3-(N-benzylcarbamoyl)piperidino]p-xylene dihydrobromide], the IC50 in the assay with human blood platelets (setting [2]) came to 53.6 ± 5.3 µM. As to `CN1CCN(CCCN2c3ccccc3Sc3ccc(C(F)(F)F)cc32)CC1` [Trifluoperazine, reference compound], in the assay on human blood platelets (Homo sapiens, Platelet, Table II, ADP-induced, n = 5 for (0)I and 6 for all others, read-out: Ia50 (compound concentrations affecting 50% inhibition of aggregation) ± S.E.), the IC50 stood at 202 ± 21.9 µM. As to `CN(Cc1ccccc1)C(=O)C1CCCN(Cc2ccc(CN3CCCC(C(=O)N(C)Cc4ccccc4)C3)cc2)C1` (racemic) [Compound 13c, α,α'-Bis[3-(N-benzyl-N-methylcarbamoyl)piperidino]p-xylene], the figures for the IC50 in the assay on human blood platelets (setting [4]) and in the assay with human blood platelets (setting [5]) were 27.3 ± 3.2 µM and 27.3 ± 3.23 µM, respectively.

For `CN(Cc1ccccc1)C(=O)C1CCCN(Cc2ccc(CN3CCCC(C(=O)N(C)Cc4ccccc4)C3)cc2)C1` (single isomer, unassigned) [Compound 13c-C], the IC50 in the assay on human blood platelets (read-out: Ia50 ± S.E. ADP-induced, table 4, ADP-induced, 5 to 7 individual determinations, listed as 13c-C(+)) turned out to be 9.55 ± 1.47 µM. For `CN(Cc1ccccc1)C(=O)[C@@H]1CCCN(Cc2ccc(CN3CCC[C@H](C(=O)N(C)Cc4ccccc4)C3)cc2)C1` [Compound 13c-B], in the assay with human blood platelets (setting [5]), the IC50 worked out at 46.9 ± 8.37 µM.

As to `CN(Cc1ccccc1)C(=O)C1CCCN(Cc2ccc(CN3CCCC(C(=O)N(C)Cc4ccccc4)C3)cc2)C1` (single isomer, unassigned) [Compound 13c-A], the IC50 in the assay on human blood platelets (read-out: Ia50 ± S.E. ADP-induced, table 4, ADP-induced, 5 to 7 individual determinations, listed as 13c-A(-)) came out at 57.4 ± 6.01 µM. Regarding `CCCN(Cc1ccccc1)C(=O)C1CCCN(Cc2ccc(CN3CCCC(C(=O)N(CCC)Cc4ccccc4)C3)cc2)C1` (racemic) [Compound 7, α,α'-Bis[3-(N-benzyl-N-propylcarbamoyl)piperidino]p-xylene dihydrobromide], the IC50 in the assay on human blood platelets (setting [2]) amounted to 72.9 ± 20.8 µM. Turning to `CCN(CC)C(=O)C1CCCN(Cc2ccc(CN3CCCC(C(=O)N(CC)CC)C3)cc2)C1` (single isomer, unassigned) [IA], the IC50 in the assay with human blood platelets (setting [3]) worked out at 233 ± 52.1 µM; in the assay with human blood platelets (Homo sapiens, Platelet, read-out: Ia50 ± S.E. ADP-Induced, table 3, ADP-induced (n = 5-6)), 233 µM; with human platelets it was 199 µM; in assay [1], 171 µM.

(Values after patent US5219867A, “Platelet aggregation inhibitory agents” (priority 1992, dated 1993).)
